Publication PMC11509005, “Synthesis, Cytotoxicity, and Mechanistic Evaluation of Tetrahydrocurcumin-Amino Acid Conjugates as LAT1-Targeting Anticancer Agents in C6 Glioma Cells” (International Journal of Molecular Sciences, 2024)
Read-outs that look alike come from different tables or passages of the source.

What was measured:
C6 glioma cells [1] = test: MTT cytotoxicity in C6 glioma cells; format: cell-based
Description: (§1) C6 glioma cells and BJ fibroblast cells (ATCC, Manassas, VA, USA) were used as models for brain cancer and normal cells, respectively. The cells were cultured in DMEM media (Sigma–Aldrich, St. Louis, MO, USA) supplemented with 10% fetal bovine serum (Merck Millipore, Burlington, MA, USA) and 1% penicillin-streptomycin (Caisson Labs, Smithfield, UT, USA). The cells were maintained in an incubator with 5% CO2 at 37 °C and 95% humidity.
(§2) Cell viability was assessed using the 3-(4,5-dimethylthiazol-2-yl)-2,5-diphenyltetrazolium bromide (MTT) assay (Sigma–Aldrich, St. Louis, MO, USA). Cells were seeded in 96-well plates at a density of 2 × 10^4 cells/well and incubated for 24 h. The cells were then treated with various concentrations of THC and equimolar concentrations of THC-amino acid conjugates (0, 31.25, 62.5, 125, 250, and 500 μM) for 24 and 48 h in cancer cells, and for 24 h in normal cells. After treatment, the media were removed and replaced with MTT solution (0.5 mg/mL), followed by incubation for 3 h. The resulting formazan crystals were dissolved in DMSO (Sigma–Aldrich, St. Louis, MO, USA). Absorbance was measured using a microplate reader at a wavelength of 570 nm (CLARIOstar®, BMG Labtech, Ortenberg, Germany).

BJ fibroblast cells = test: MTT cytotoxicity in normal BJ fibroblast cells; format: cell-based; conditions: 24 h treatment
Description: as §1, §2

C6 glioma cells [2] = test: MTT cell viability of BCH and of THC-di-Phe with or without LAT1 inhibitor BCH; format: cell-based; conditions: 24 h
Description: To investigate the role of THC-conjugated amino acid conjugates on LAT1, THC-amino acid conjugates were co-incubated with an inhibitor of LAT1 (BCH). The cells were seeded overnight at 2 × 10^4 cells/well in 96-well plates. Initially, the cells were treated with different concentrations of BCH (5, 10, and 20 mM) for 24 h, followed by the MTT assay to identify the maximum non-toxic concentration of BCH. Then, the cells were treated with THC-di-Phe at 12.5, 25, and 50 μM concentrations with or without 5 mM BCH for 24 h. The cell viability was measured by MTT assay.

LAT1 = tested on: LAT1; design: method as in PMID 18520037; conditions: BCH 3 mM, C6 glioma cells; cited from earlier work
C6 glioma cells [3] = tested on: C6 glioma cells; design: method as in PMID 18520037; conditions: cited from earlier work
C6 glioma cells [4] = test: MTT cytotoxicity in C6 glioma cells; format: cell-based; conditions: tested at 5 to 40 µM, Supplementary Figure S29
P70S6K/S6 pathway = test: Western blot of P70S6K and S6 phosphorylation; format: cell-based; conditions: 10 µM, C6 cells, 8, 16 and 24 h post-treatment
Description: C6 cells were seeded in a 6-well plate with a density of 1 × 10^6 cells for 24 h. The cells were treated with THC and THC-di-Phe for 8, 16, and 24 h. The cells were washed in ice-cold phosphate-buffered saline (PBS) and lysed with ice-cold lysis buffer containing protease and phosphatase inhibitors. The cells in the lysis buffer were centrifuged at 14,000 rpm at 4 °C for 10 min. The protein concentration in the supernatant was quantified using Pierce™ BCA protein assay. After the quantification, equal amounts of protein were resolved by SDS–PAGE and transferred into a nitrocellulose membrane. The membranes were then blocked with 5% dry milk and probed with primary antibody including p70S6K, p-p70S6K, S6, p-S6 (Cell Signaling Technology (Beverly, MA, USA), followed by adding the species-specific horseradish […] conjugated secondary antibody (Cell Signaling Technology (Beverly, MA, USA). The membrane was incubated with a chemiluminescent detection kit solution, followed by X-ray film imaging to visualize protein levels. The level of phosphorylation of each protein was normalized to its normal form.

C6 glioma cells [5] = test: Annexin V/PI double staining by flow cytometry; format: cell-based; conditions: 20 μM, 24 h, mean ± S.D., n = 3
Description: Annexin V/PI staining by flow cytometry was performed to indicate the stage of cell fate, including necrosis, early and late apoptosis, and viable cells. Briefly, the cells were treated with the THC and THC-di-Phe at 20 µM. After 24 h, the cells were harvested and further analyzed by flow cytometry. Annexin V/PI staining by flow cytometry was performed according to the manufacturer’s instructions (BioLegend, San Diego, CA, USA).

C6 glioma cells [6] = test: Cell scratch (wound closure, migration) assay; format: cell-based; conditions: 10 µM, % of wound closure compared to 0 h; for wound closure at 24 h: control 71.4%; for wound closure at 48 h: control 100%
Description: Properties of cell migration were assayed using a cell scratch assay. Briefly, the cells were seeded in 24-well plates at a concentration of 100,000 cells/well, followed by treatment of the cells using 10 µM THC and 10 µM THC-di-Phe. The cell layers were then scrapped with a 200 µL pipette tip to form a wound. The ability of the cells to close the wound was observed under an inverted microscope (Nikon TS2, Tokyo, Japan) at 0, 24, and 48 h post-treatment. Wound closure was further analyzed using ImageJ software (version 1.53e, Wayne Rasband and contributors, National Institutes of Health, USA).

C6 cells = test: Cell proliferation assay (MTT); format: cell-based; conditions: 10 µM, 24 h and 48 h post-treatment
Description: The effects of THC-di-Phe on cell cancer proliferation were assessed using a cell proliferation assay. Briefly, C6 cells were seeded in a 96-well plate at a concentration of 5000 cells/well and then incubated overnight. Cells were then incubated with 10 µM THC and THC-di-Phe for 24 and 48 h. The morphology of the cells was observed under a light microscope. Then, the cells were incubated with MTT solution (0.5 mg/mL), and the formed formazan crystals were dissolved in DMSO. The absorbance was measured using a microplate reader (CLARIOstar®, BMG Labtech, Ortenberg, Germany) at the wavelength of 570 nm.

C6 glioma cells [7] = test: Hoechst 33342/PI double staining assay (apoptosis and necrosis); format: cell-based; conditions: 20 and 40 µM and higher concentrations
Description: Apoptosis and necrosis were assessed using the Hoechst 33342/PI double staining assay (Sigma–Aldrich, St. Louis, MO, USA). After treatment, the cells were viewed using a fluorescence microscope (Olympus IX51 inverted microscope, Tokyo, Japan). Hoechst 33342 dye stains cells with blue color, either dead or alive. Apoptotic cells are indicated by condensed and fragmented chromatin. Propidium iodide (PI) stains cells in red, which can only stain damaged cells and is used as an indicator of cellular necrosis.

[8] = 24 h treatment, read-out: IC50 at 24 h, C6 cells
[9] = 48 h treatment, read-out: IC50 at 48 h, C6 cells

Row | Compound | IC50 (C6 glioma cells [1]; [8]) [µM] | IC50 (C6 glioma cells [1]; [9]) [µM] | IC50 (BJ fibroblast cells) [µM] | phosphorylation of P70S6K and S6 compared to control (P70S6K/S6 pathway) | necrotic cell death (C6 glioma cells [5]) [%] | percentage of late apoptotic cells (C6 glioma cells [5]) [%] | wound closure at 24 h (C6 glioma cells [6]) [%] | wound closure at 48 h (C6 glioma cells [6]) [%] | proliferation ability of C6 cells compared to the control (C6 cells) | further results
1 | (Z)-2,2′-(((((3-Hydroxy-5-oxohept-3-ene-1,7-diyl)bis(2-methoxy-4,1-phenylene))bis(oxy))bis (carbonyl))bis(azanediyl))bis(4-methylpentanoic acid) [THC-di-Leu] | 350 ± 52.6 | 350 ± 129 | > 500 |  |  |  |  |  |  | 
2 | NC1(C(=O)O)CC2CCC1C2 (centres unmarked) [BCH, 2-Aminobicyclo-(2,2,1)-heptane-2-carboxylic acid] |  |  |  |  |  |  |  |  |  | maximum non-toxic concentration (C6 glioma cells [2]; C6 glioma cells, MTT): 5 mM; inhibition of LAT1 activity (LAT1): completely inhibit; cytotoxicity at 3 mM (C6 glioma cells [3]; BCH 3 mM, 24 h incubation): no significant cytotoxicity; cytotoxicity at 10 mM (C6 glioma cells [3]; BCH 10 mM): significant toxicity
3 | (Z)-2,2′-(((((3-Hydroxy-5-oxohept-3-ene-1,7-diyl)bis(2-methoxy-4,1-phenylene))bis(oxy))bis (carbonyl))bis(azanediyl))bis(3-phenylpropanoic acid) [THC-di-Phe] | 35.8 | 26.8 | 470 ± 20.4 | significantly inhibited | 5.01 ± 0.64 | 6.07 ± 1.13 | 32.8 | 65.2 | significantly inhibited | concentrations toxic to C6 glioma cells (C6 glioma cells [4]): above 10 µM; cell death on co-incubation with BCH vs THC-di-Phe alone, lower concentrations (C6 glioma cells [2]; THC-di-Phe 12.5 and 25 μM, 5 mM BCH): significantly increased cell death; cell death with or without BCH, higher concentrations (C6 glioma cells [2]; THC-di-Phe 50 and 100 μM, 5 mM BCH): comparable cellular death; induction of cellular apoptosis (Hoechst 33342/PI) (C6 glioma cells [7]): observed
4 | COc1cc(CCC(=O)CC(=O)CCc2ccc(O)c(OC)c2)ccc1O [THC, Tetrahydrocurcumin] | 111 | 52.9 |  | did not significantly modulate | 2.73 ± 0.15 | 2.33 ± 0.32 | 46.3 | 81.4 | significant reduction of cell proliferation by THC was only observed 48 h post-treatment | IC50 (BJ fibroblast cells; Homo sapiens): 184 ± 31.8 µM
5 | (Z)-2,2′-(((((3-Hydroxy-5-oxohept-3-ene-1,7-diyl)bis(2-methoxy-4,1 phenylene))bis(oxy))bis (carbonyl))bis(azanediyl))diacetic acid [THC-di-Gly] | > 500 | > 500 | > 500 |  |  |  |  |  |  | 
6 | (Z)-2,2′-(((((3-Hydroxy-5-oxohept-3-ene-1,7-diyl)bis(2-methoxy-4,1-phenylene))bis(oxy))bis (carbonyl))bis(azanediyl))bis(3-methylpentanoic acid) [THC-di-Ile] | > 500 | > 500 | > 500 |  |  |  |  |  |  | 
